One block for each compound: values may come before it.
Legend:
BxPC-3 = experiment: Cell viability assay, pancreatic cancer cell lines; assay type: cell-based; conditions: Homo sapiens; BxPC-3 (Pancreas); 48 h
Method: MiaPaCa-2, Panc-1 cells were grown in Dulbecco's modified eagle's medium (DMEM) (Gibco) supplemented with 10% fetal bovine serum (FBS), while BxPC-3, Capan-1, Capan-2 cells were grown in Roswell Park Memorial Institute 1640 (RPMI 1640) (Gibco) supplemented with 10% FBS. Gemcitabine (Gemzar) was purchased from Lilly France S.A.S (Suresnes, France). (3-(4,5-dimethylthiazol-2-yl)-2,5diphenyltetrazolium bromide, MTT) was purchased from Sigma-Aldrich.
BxPC-3, MiaPaCa-2, Panc-1 cells were seeded into a 96-well plate at 10,000 10,000 15,000 cells per well respectively, while Capan-1 and Capan-2 cells at 20,000 cells per well and allowed to adhere overnight. Then the culture medium was removed and replaced with fresh media alone as control or containing various concentrations of different compounds. In dose-dependent assay, the cells were treated with compound XIX-3 at the concentration varying from 0.1 μM to 100 μM while the cells being cultured by fresh media alone were used as control. After 48 h treatment, the number of remained viable cells was determined by (3-(4,5-dimethylthiazol-2-yl)-2,5diphenyltetrazolium bromide, MTT) colorimetric assay (see Sigma Aldrich protocol and Riss T. L. et al. Cell Viability Assays in Assay Guidance Manual 2013 ppl.). All experiments were done in duplicate and repeated two independent times.

HepG2 = experiment: CellTiter-Glo cell viability assay (example 57); assay type: cell-based; conditions: Homo sapiens; HepG2 (Liver); Cell Titer-Glo; 72 h
Method: (§1) The human breast cancer cell line SkBr3 and the human metastatic prostate carcinoma cell line LnCAP were cultured in Dulbecco's modified Eagle's medium (DMEM) supplemented with 10% fetal bovine serum (FBS) and 0.1% sodium pyruvate. The human myelocytic cell line U937 and NB4 were maintained in RPMI medium 1640 1× (Gibco 21875-034) supplemented with 10 % Fetal Bovine Serum (FBS, Eurobio S39130-0808) Kasumi and SKM-1 were maintained in RPMI medium 1640 1× (Gibco 21875-034) supplemented with 20 % Fetal Bovine Serum (FBS, Eurobio S39130-0808), HL60 was maintained in Iscove's modified Dulbecco's medium 1× (IMDM, Gibco 21890) supplemented with 20% Fetal Bovine Serum (FBS, Eurobio S39130-0808), cell line was maintained in MEM alpha medium (Gibco 22561-021) supplemented with 10% FBS at 37° C. with 5% CO2. Cell outgrowth was measured using the CellTiter-Glo luminescent cell viability assay as described by the manufacturer (Promega, Ref G7571 Madison, Wis., USA) using a FLUOstar optima luminometer (BMG Labtech, Ortenberg, Germany).
(§2) Briefly, for adherent cells, 10^4 cells were plated onto 96-well plates (white with clear bottom (3610, Corning Costar) in 100 μL of media per well and were allowed to grow overnight before the assay. For cells growing in suspension, 10^4 cells were plated onto 96-well plates immediately before the assay. […] Vehicle (DMSO) was used as a control, and all compounds were tested in a constant percentage of DMSO (1%). After addition of 50 μL of CellTiter GLO, luminescence was measured using a Centro luminometer (Berthold). EC50 values were determined as the dose of compound required to reduce luminescent values to 50% of the signal obtained for untreated cell cultures. All experiments were done in duplicate and repeated two independent times.

LNCaP = experiment: CellTiter-Glo cell viability assay (example 57); assay type: cell-based; conditions: Homo sapiens; LNCaP (Prostate); Cell Titer-Glo; 72 h
Method: as §1, §2

SkBr3 = experiment: CellTiter-Glo cell viability assay (example 57); assay type: cell-based; conditions: Homo sapiens, SK-BR-3; SkBr3 (Breast); Cell Titer-Glo; 72 h
Method: as §1, §2

HT29 = experiment: CellTiter-Glo cell viability assay (example 57); assay type: cell-based; conditions: Homo sapiens, HT-29; HT29 (Colon); Cell Titer-Glo; 72 h
HL60 = experiment: CellTiter-Glo cell viability assay (example 57); assay type: cell-based; conditions: Homo sapiens, HL-60; HL60 (Leukemia); Cell Titer-Glo; 72 h
Method: as §1, §2

KG-1 = experiment: CellTiter-Glo cell viability assay (example 57); assay type: cell-based; conditions: Homo sapiens; KG-1 (Leukemia); Cell Titer-Glo; 72 h
Method: as §1, §2

Kasumi-1 = experiment: CellTiter-Glo cell viability assay (example 57); assay type: cell-based; conditions: Homo sapiens; Kasumi-1 (Leukemia); Cell Titer-Glo; 72 h
Method: as §1, §2

MOLM-14 = experiment: CellTiter-Glo cell viability assay (example 57); assay type: cell-based; conditions: Homo sapiens; MOLM-14 (Leukemia); Cell Titer-Glo; 72 h
Method: as §1, §2

NB4 = experiment: CellTiter-Glo cell viability assay (example 57); assay type: cell-based; conditions: Homo sapiens, NB-4; NB4 (Leukemia); Cell Titer-Glo; 72 h
Method: as §1, §2

SKM-1 = experiment: CellTiter-Glo cell viability assay (example 57); assay type: cell-based; conditions: Homo sapiens; SKM-1 (Leukemia); Cell Titer-Glo; 72 h
Method: as §1, §2

U937 = experiment: CellTiter-Glo cell viability assay (example 57); assay type: cell-based; conditions: Homo sapiens, U-937; U937 (Leukemia); Cell Titer-Glo; 72 h
Method: as §1, §2

MOLM-14 cell line = experiment: Growth inhibition assay of MOLM-14 (CellTiter-Glo, example 63); assay type: cell-based; conditions: Homo sapiens, 48 h, method of example 63
Method: MOLM-14 cell line was cultured in RPMI-1640 Medium supplemented with 10% v/v Fetal Bovine Serum (FBS), 1% Penicillin-Streptomycin and maintained at 37° C. with 5% CO2. 10,000 cells were plated onto 96-well plates immediately before the assay.
Each compound was added at different concentrations (combinations of six concentrations) to each well, and cell cultures were incubated for 48 h. Vehicle (H2O) was used as a control, and all compounds were tested in a constant percentage of vehicle. Cell outgrowth was measured using the CellTiter-Glo luminescent cell viability assay as described by the manufacturer (Promega, Ref G7571 Madison, Wis., USA) using a Centro (Berthold, France) plate reader.
In each experiment, each point represents the average of triplicates in cell culture.
The experimental data are analyzed using a computer program, Graphpad Prism (GraphPad Software, Inc. La Jolla, Calif.) and EC50 values were determined as the dose of compound required to reduce absorbance values to 50% of the signal obtained for vehicle treated cell cultures.

[1] = system: ALDH+ cancer stem cells (CSC) in MOLM-14 cell line; experiment: Aldefluor kit assay, ALDH+ compartment analysis; assay type: cell-based, human; conditions: for Aldefluor™ positive CSCs (% of control): 72 h; for Aldefluor positive CSCs (% of control): MOLM-14 cell line, 72 h incubation
Description: Analysis of the of aldehyde dehydrogenase (ALDH) compartment and high activity level of aldehyde dehydrogenase activity (ALDH+) was used to detect tumor initiating cells (cancer stem cells, CSC) population. The Aldefluor™ kit assay (StemCell Technologies) allowed to assess the activity of drugs on CSC cells like in aa MOLM-14 acute myeloid leukemia cell line population. The Aldefluor™ kit assay was used according to the procedure described by the manufacturer. Briefly, MOLM-14 cell line was cultured in RPMI-1640 Medium supplemented with 10% v/v Fetal Bovine Serum (FBS), 1% Penicillin-Streptomycin and maintained at 37° C. with 5% CO2. 5·10^5 cells were used in this assay. Each compound was added at different concentrations (see table 13 and 14), and cell cultures were incubated for 72 h. Vehicle (H2O) was used as a control, and all compounds were tested in a constant percentage of vehicle. Cells obtained from cell culture were incubated for 45 minutes at 37° C. with Aldefluor™ buffer assay containing the Bodipy™-aminoacetaldehyde (BAAA), a fluorescent ALDH aldehyde substrate. ALDH converts the fluorescent substrate BAAA to the Bodipy™-aminoacetic acid (BAA) which is retained in the cell. An active efflux inhibitor is present in the Adelfluor™ assay buffer in order to avoid the active efflux from the cell of the substrate product ALDH dependent converted BAA. The fluorescent signal is directly proportional to the ALDH activity in the cells and is measured by flow cytometry. A negative control is used to measure the background fluorescence level. For such purpose, 4-(N,N-diethylamino)-benzaldehyde (DEAB) was used as selective ALDH inhibitor. A viability cell count was performed using LIVE/DEAD® Fixable Far Red Dead Cell Stain Kit (Invitrogen). The experimental data are analyzed using a computer program, Graphpad Prism (GraphPad Software, Inc. La Jolla, Calif.) and EC50 values were determined as the dose of compound required to reduce absorbance values to 50% of the signal obtained for vehicle treated cell cultures.

[2] = Encapsulation efficiency of XIX-2 in PLGA-PLGAPEG nanoparticules (HPLC); assay type: physicochemical
Method: According to the general procedure described elsewhere (see for example Kumar, K. et al. J. Controlled Release 2013 (171) pp 208-215 and Danhier, F. et al. Int. J. Pharm. 2010 (392) pp 20-28) a nanoparticule PLGA-PLGAPEG (70/30, w/w) formulation of compound XIX-2 was prepared. Briefly, XIX-2 loaded PLGA (L:G 50:50, Mw 7,000-17,000, acid terminated) and PLGA-PEG (L:G 50:50, 15% of PEG, PLGA Mw 28,000; PEG Mw 5,000) nanoparticles were prepared by O/W emulsion-solvent evaporation technique. 35 mg of PLGA polymer and 15 mg of PLGA-PEG polymer was dissolved in 1 ml of a solution of XIX-2 in dichloromethane (10 mg/ml) and vortexed to obtain a uniform PLGA-PLGAPEG solution. Then, 2 ml of a 1% sodium cholate aqueous solution was added and the resulting biphasic system was sonicated (Branson sonifier, USA) at 70 W for 15 s. This emulsion was added dropwise to 100 ml of a 1% sodium cholate aqueous solution at 37° C. and stirred at 600 rpm for 1 h. The nanoparticle suspension was then washed twice in distilled water by centrifugation (Avanti-JE centrifuge, Beckman coulter, USA) for 60 min at 10,000 t·min^−1 and 4° C. Supernatants were collected to evaluate encapsulation efficiency of XIX-2. Empty nanoparticles were prepared with the same procedure except the addition of XIX-2 during the preparation of the formulation. The particles can be stored in solution at +4° C. or then freeze dried (Labconco, USA) and stored at 4° C. until further use.
Encapsulation efficiency estimated the amount of XIX-2 encapsulated in PLGA-PLGAPEG nanoparticules. Supernatants were used to measure the non-encapsulated XIX-2. Nanoparticules were dissolved in 1 ml of mobile phase to evaluate the encapsulated XIX-2. An HPLC system (Waters Breeze) with a diode array detector and multiple wavelength detector was used for the quantification of XIX-2 in supernatants and nanoparticles. […]
The coefficients of variation (CV) for intra- and inter-assay measurements were within 5%. The encapsulation efficiency of XIX-2 is given by [XIX-2 used−XIX-2 non-encapsulated)/XIX-2 used]×100 and XIX-2 recovery was calculated.

EC50 (BxPC-3): 20 nM
EC50 (HepG2): 20 nM
EC50 (LNCaP): 40 nM
EC50 (HT29): 200 nM
SMILES: Nc1ccn([C@@H]2O[C@H](CO)[C@@H](O)C2(F)F)c(=O)n1 [Gemcitabine, gemcitabine]
EC50 (SkBr3): 200 nM

EC50 (HL60): 2000 nM
EC50 (MOLM-14): 3000 nM
EC50 (SKM-1): 2000 nM
EC50 (U937): 30 nM
EC50 (MOLM-14 cell line): 1000 nM
SMILES: Nc1ccn([C@@H]2O[C@H](CO)[C@@H](O)[C@@H]2O)c(=O)n1 [Cytarabine]
EC50 (KG-1): 150 nM
EC50 (Kasumi-1): 150 nM
EC50 (NB4): 20 nM
Aldefluor™ positive CSCs (% of control) ([1]; MOLM-14, 1 μM): 130 % of control
Aldefluor™ positive CSCs (% of control) ([1]; MOLM-14, 3 μM): 116 % of control
Activity against CSCs in Aldefluor™ assay (proportion of CSCs) ([1]; MOLM-14, dose dependent, Cytarabine up to 3-fold its EC50): not active against CSCs
Aldefluor positive CSCs (% of control) ([1]; 1 μM): 130 % of control
Aldefluor positive CSCs (% of control) ([1]; 3 μM): 116 % of control

SMILES: CCN(CC)C1CCN(C(C)c2cc(-c3ccccc3)nc3ccccc23)CC1 (stereo not drawn) [XIX-2, 2-phenyl-4-{1-[4-(N,N-diethylamino)-piperidin-1-yl]-eth-1-yl}quinoline]
Concentration of XIX-2 in nanoparticules dispersion ([2]; PLGA-PLGAPEG (70/30, w/w) nanoparticules, HPLC): 3210 µM
Loading ([2]; PLGA-PLGAPEG nanoparticules, [XIX-2 encapsulated/PLGA-PLGAPEG used] × 100): 2.5%
Encapsulation efficiency ([2]; PLGA-PLGAPEG nanoparticules; [XIX-2 used − XIX-2 nonencapsulated)/XIX-2 used] × 100): 9.4%
